In ChEMBL document CHEMBL1649262, “Nosocomial spread of colistin-only-sensitive sequence type 235 Pseudomonas aeruginosa isolates producing the extended-spectrum beta-lactamases GES-1 and GES-5 in Spain” (2009) one finds MIC data, which are given here for 11 molecules.

The test system of experiment [1] is Pseudomonas aeruginosa. The experiment is described as follows: Antibacterial activity against Pseudomonas aeruginosa PAO1 by Etest method. The class given is functional.
Experiment [2] deals with Pseudomonas aeruginosa. The experiment is described as follows: Antibacterial activity against mexB and mexY expressing Pseudomonas aeruginosa PA-A1 harboring GyrA T83I, ParC S87L and IS1001 insertion at position 629 in OprD gene by Etest method. The class given is functional.
In experiment [3] the test system is Pseudomonas aeruginosa. The experiment is described as follows: Antibacterial activity against mexB and mexY expressing Pseudomonas aeruginosa PA-A3 harboring GyrA T83I, ParC S87L and IS1001 insertion at position 629 in OprD gene by Etest method. The class given is functional.
The test system of experiment [4] is Pseudomonas aeruginosa. The experiment is described as follows: Antibacterial activity against mexB and mexY expressing Pseudomonas aeruginosa PA-A2 harboring GyrA T83I, ParC S87L and IS1001 insertion at position 629 in OprD gene by Etest method. The class given is functional.
Experiment [5] has as its system Pseudomonas aeruginosa. Nature of the experiment: Antibacterial activity against Pseudomonas aeruginosa PAO1 harboring plasmid pA1 by Etest method. The class given is functional.
Experiment [6] concerns Pseudomonas aeruginosa. The experiment is described as follows: Antibacterial activity against Pseudomonas aeruginosa PAO1 harboring plasmid pA1 by Etest in presence of clavulanic acid.
The test system of experiment [7] is Pseudomonas aeruginosa. The experiment is described as follows: Antibacterial activity against mexB and mexY expressing Pseudomonas aeruginosa PA-A3 harboring GyrA T83I, ParC S87L and IS1001 insertion at position 629 in OprD gene by Etest method in presence of Tazobactam. The class given is functional.
Experiment [8] relates to Pseudomonas aeruginosa. Nature of the experiment: Antibacterial activity against Pseudomonas aeruginosa PAO1 by Etest method in presence of Tazobactam. The class given is functional.
Experiment [9] has as its system Pseudomonas aeruginosa. Nature of the experiment: Antibacterial activity against mexB and mexY expressing Pseudomonas aeruginosa PA-A2 harboring GyrA T83I, ParC S87L and IS1001 insertion at position 629 in OprD gene by Etest method in presence of Tazobactam. The class given is functional.
Experiment [10] deals with Pseudomonas aeruginosa. The experiment is described as follows: Antibacterial activity against Pseudomonas aeruginosa PAO1 harboring plasmid pA1 by Etest method in presence of Tazobactam. The class given is functional.
The subject of experiment [11] is Pseudomonas aeruginosa. Nature of the experiment: Antibacterial activity against mexB and mexY expressing Pseudomonas aeruginosa PA-A1 harboring GyrA T83I, ParC S87L and IS1001 insertion at position 629 in OprD gene by Etest method in presence of Tazobactam. The class given is functional.

≈ marks a conversion by molar mass, not a printed value.

As for `NCC[C@H](O)C(=O)N[C@@H]1C[C@H](N)[C@@H](O[C@H]2O[C@H](CN)[C@@H](O)[C@H](O)[C@H]2O)[C@H](O)[C@H]1O[C@H]1O[C@H](CO)[C@@H](O)[C@H](N)[C@H]1O` [AMIKACIN], the MIC against Pseudomonas aeruginosa [1] was 4 µg/mL (≈ 6.83 µM); with Pseudomonas aeruginosa [2] it was over 256 µg/mL; against Pseudomonas aeruginosa [3], over 256 µg/mL; against Pseudomonas aeruginosa [4] it was over 256 µg/mL; against Pseudomonas aeruginosa [5], over 32 µg/mL.

`C[C@H]1[C@H](NC(=O)/C(=N\OC(C)(C)C(=O)O)c2csc(N)n2)C(=O)N1S(=O)(=O)O` [AZTREONAM]: the minimal inhibitory concentration (MIC) in the experiment with Pseudomonas aeruginosa [1] is 1.5 µg/mL (≈ 3.44 µM); in the experiment on Pseudomonas aeruginosa [2], over 256 µg/mL; in the experiment with Pseudomonas aeruginosa [3], over 256 µg/mL; with Pseudomonas aeruginosa [4], over 256 µg/mL; with Pseudomonas aeruginosa [5] it was over 256 µg/mL.

In the case of `CO/N=C(\C(=O)N[C@@H]1C(=O)N2C(C(=O)[O-])=C(C[N+]3(C)CCCC3)CS[C@H]12)c1csc(N)n1` [CEFEPIME], the MIC in the experiment on Pseudomonas aeruginosa [2], against Pseudomonas aeruginosa [3], in the experiment on Pseudomonas aeruginosa [4] and in the experiment with Pseudomonas aeruginosa [5] was over 256 µg/mL in each case.

Regarding `CC(C)(O/N=C(\C(=O)N[C@@H]1C(=O)N2C(C(=O)[O-])=C(C[n+]3ccccc3)CS[C@H]12)c1csc(N)n1)C(=O)O` [CEFTAZIDIME], the minimum inhibitory concentration (MIC) in the experiment with Pseudomonas aeruginosa [1] is 1 µg/mL (≈ 1.83 µM); in the experiment on Pseudomonas aeruginosa [2] it was over 256 µg/mL; against Pseudomonas aeruginosa [3] it was over 256 µg/mL; with Pseudomonas aeruginosa [4], over 256 µg/mL; in the experiment on Pseudomonas aeruginosa [5], over 256 µg/mL.

Regarding `O=C(O)c1cn(C2CC2)c2cc(N3CCNCC3)c(F)cc2c1=O` [CIPROFLOXACIN], the minimal inhibitory concentration (MIC) against Pseudomonas aeruginosa [2] is over 32 µg/mL; against Pseudomonas aeruginosa [3], over 32 µg/mL; with Pseudomonas aeruginosa [4] it was over 32 µg/mL; against Pseudomonas aeruginosa [5] it was 0.064 µg/mL (≈ 0.193 µM).

For the molecule `C[C@@H](O)[C@H]1C(=O)N2C(C(=O)O)=C(SCCNC=N)C[C@H]12` [IMIPENEM ANHYDROUS], the minimal inhibitory concentration (MIC) is 1 µg/mL (≈ 3.34 µM) in the experiment on Pseudomonas aeruginosa [1]; 4 µg/mL with Pseudomonas aeruginosa [6]; over 32 µg/mL in the experiment with Pseudomonas aeruginosa [2]; over 32 µg/mL in the experiment with Pseudomonas aeruginosa [3]; over 32 µg/mL in the experiment on Pseudomonas aeruginosa [4]; 8 µg/mL (≈ 26.7 µM) in the experiment on Pseudomonas aeruginosa [5].

With `C[C@@H](O)[C@H]1C(=O)N2C(C(=O)O)=C(S[C@@H]3CN[C@H](C(=O)N(C)C)C3)[C@H](C)[C@H]12` [MEROPENEM], the MIC with Pseudomonas aeruginosa [1] is 0.25 µg/mL (≈ 0.652 µM); in the experiment on Pseudomonas aeruginosa [2] it was over 32 µg/mL; in the experiment on Pseudomonas aeruginosa [3], over 32 µg/mL; against Pseudomonas aeruginosa [4], over 32 µg/mL; against Pseudomonas aeruginosa [5] it was over 32 µg/mL.

As to `CCN1CCN(C(=O)N[C@@H](C(=O)N[C@@H]2C(=O)N3[C@@H]2SC(C)(C)[C@@H]3C(=O)O)c2ccccc2)C(=O)C1=O` [PIPERACILLIN], the MIC in the experiment on Pseudomonas aeruginosa [1] is 3 µg/mL (≈ 5.8 µM); in the experiment with Pseudomonas aeruginosa [7] it was over 256 µg/mL; in the experiment on Pseudomonas aeruginosa [8], 2 µg/mL; in the experiment with Pseudomonas aeruginosa [9] it was over 256 µg/mL; with Pseudomonas aeruginosa [10], over 256 µg/mL; with Pseudomonas aeruginosa [11], over 256 µg/mL. Moreover, the MIC against Pseudomonas aeruginosa [2], against Pseudomonas aeruginosa [3], against Pseudomonas aeruginosa [4] and with Pseudomonas aeruginosa [5] was over 256 µg/mL in each case.

As to `NC[C@H]1O[C@H](O[C@H]2[C@H](O)[C@@H](O[C@H]3O[C@H](CO)[C@@H](O)[C@H](N)[C@H]3O)[C@H](N)C[C@@H]2N)[C@H](N)C[C@@H]1O` [TOBRAMYCIN], the minimum inhibitory concentration (MIC) is 1 µg/mL (≈ 2.14 µM) against Pseudomonas aeruginosa [1]; over 256 µg/mL in the experiment with Pseudomonas aeruginosa [2]; over 256 µg/mL against Pseudomonas aeruginosa [3]; over 256 µg/mL against Pseudomonas aeruginosa [4]; 16 µg/mL (≈ 34.2 µM) with Pseudomonas aeruginosa [5].

As to COLISTIN, the minimum inhibitory concentration (MIC) against Pseudomonas aeruginosa [1] came out at 1 µg/mL; with Pseudomonas aeruginosa [2] it was 2 µg/mL; against Pseudomonas aeruginosa [3], 2 µg/mL; against Pseudomonas aeruginosa [4] it was 2 µg/mL; in the experiment on Pseudomonas aeruginosa [5], 1 µg/mL.

For the molecule GENTAMICIN, the minimum inhibitory concentration (MIC) was 2 µg/mL against Pseudomonas aeruginosa [1], over 256 µg/mL in the experiment on Pseudomonas aeruginosa [2], over 256 µg/mL in the experiment on Pseudomonas aeruginosa [3] and over 256 µg/mL against Pseudomonas aeruginosa [4].
